Test results from patent US20040175378A1, “Selected antibody compositions and methods for binding to aminophospholipids” (Board of Regents, The University of Texas System, priority 2002, published 2004).

Assays:
bEnd.3 cells = assay: PS exposure by 125I-annexin V binding; type: cell-based, Mouse; conditions: bEnd.3, 24 h
Description: (§1) All reagents were diluted in medium containing 10% serum and incubated with the cells at 37° C. for 24 h.
(§2) To study the effect of hypoxia, cells were seeded on 24 well plates and were incubated in a humidified normoxic atmosphere (21% O2, 5% CO2) for 48 h before being transferred to a humidified hypoxic atmosphere (1% O2, 5% CO2, 94% N2) in a sealed chamber (Billups Rothenberg Inc., Del Mar, Calif.). Cells were incubated in a hypoxic chamber for 24 h at 37° C. and were then returned to a normoxic environment for 4 h at 37° C. The cells were compared to a parallel culture from an identical passage, seeded on the same day and maintained entirely under normoxic conditions. In some studies, IL-1α (10 ng/ml) and TNFα (20 ng/ml) were added to the medium before transfer to the hypoxic chamber.
(§3) After treatment with the reagents described above, treated and control cells were incubated with 7.1 pmoles of ^125I-labeled annexin V (200 μl/well) in the binding buffer. After 2 h incubation at room temperature, cells were washed extensively and dissolved in 0.5 M of NaOH. The entire volume of 0.5 ml was transferred to plastic tubes and counted in a gamma counter. Non-specific binding was determined in the presence of 5 mM EDTA and was subtracted from experimental values. The results were expressed as net pmoles of cell-bound annexin V, normalized per 1×10^6 cells.
(§4) Maximal binding of annexin V was determined on cells simultaneously treated with actinomycin D and TNFα (50 ng/ml of each component). As has been previously reported, these agents cause apoptosis and PS exposure in 90-100% of endothelial cells (Lucas et al., 1998). Basal binding of ^125I-annexin V to untreated cells was determined in the presence of medium with 10% serum. The amount of ^125I-annexin V that bound to the untreated cultures was subtracted from that in the treated cultures. Exposure of PS was calculated according to the following formula: cell-bound annexin V (pmoles) under experimental conditions divided by maximal annexin V binding (pmoles), multiplied by 100. Each study was performed in duplicate and was performed at least three times. Mean values were calculated. The SE of the mean values from three separate experiments was less than 5%.

ABAE cells = assay: PS exposure by 125I-annexin V binding; type: cell-based, bovine; conditions: 24 h
Description: as §1, §2, §3, §4

bEnd.3 endothelial cells = assay: PS translocation and viability of bEnd.3 cells treated with H2O2; conditions: low levels of H2O2
[1] = system: tumor vascular endothelium of MDA-MB-435 tumors; assay: Localization of biotinylated ch3G4 in tumors; type: in vivo, mice; conditions: i.v., one hour
Description: Localization of ch3G4 was examined in MDA-MB-435 human breast cancer cells growing in mice. Mice were injected intravenously with biotinylated ch3G4 or control IgG of irrelevant specificity. One hour later, the mice were exsanguinated, and their tumors were removed and frozen sections were cut. Biotinylated reagents were first incubated with streptavidin-Cy3 conjugate, washed in PBS, then incubated with MECA 32 antibody followed by FITC-tagged secondary antibody. Single images, taken with appropriate filters for Cy3 (red) and FITC (green) fluorescence respectively, were captured by digital camera and transferred to a computer.

[2] = system: orthotopic MDA-MB-435 breast cancer; assay: 3G4 and ch3G4 tumor treatment; type: in vivo, mice; conditions: i.p. 800 μg day 15, 200 μg every two to three days, 400 μg day 35
Description: Tumors were also established using MD-MBA-435s cells and treated as described above. […] The treatment of large L540 tumors, MDA-MB-231 and MD-MBA-435s tumor cells for 60 days is shown in FIG. 8D, FIG. 8E and FIG. 8F. The antibodies caused tumor vascular injury, thrombosis and necrosis and retarded tumor growth, with no evidence of toxicity.
MD-MBA-435s lucerifase cells were obtained from Dr. Angels Sierra Jimenez, Barcelona, Spain and were grown in 10% DMEM. Mice were injected with tumor cells as described as above, and at 2 weeks post injection, the tumors were measured and the volume recorded. […] Treatment was initiated by IP injection (800 μg) at day 15 and continued with injections of 200 μg every two to three days until the final injection of 400 μg at day 35. Tumor volumes and mouse body weights were measured on injection days. Mice were sacrificed and perfused with saline for 12 minutes. The organs and tumor were removed, snap-frozen in liquid nitrogen and the tumor sectioned for immunohistochemistical analysis.

mCMV RVG102 = assay: Survival of mCMV-infected mice; type: in vivo, Balb/C mice; conditions: 1 mg/mouse i.p. day 1, 0.5 mg/mouse every four days until day 26; past 90 days
[3] = system: Vaccinia virus-infected U937 cells; type: cell-based; conditions: day 2 after infection, m.o.i. 2
[4] = Binding of chimeric 3G4 to phospholipid-coated ELISA plates
Source text: FIG. 21. […] Phospholipids (PS, PI, PE, PC, SM, CL, PG and PA) were adsorbed to plastic of microtiter plates.

[5] = progressive disease before treatment; cited from earlier work
HUVEC and HMVEC = assay: Induction of PS exposure on endothelial cells, FACS of 3G4 binding; type: cell-based, Human; conditions: 10 nM, 24 hrs
Description: (§5) FIG. 24A and FIG. 24B. Induction of PS exposure on endothelial cells by docetaxel. Human umbilical vein endothelial cells (HUVEC) and human microvessel endothelial cells (HMVEC) were treated with 10 nM of docetaxel for 24 hrs. […] The cells were then washed twice, FITC labeled goat anti-mouse IgG was added and the cells incubated for a further 30 mins. on ice. The cells were then washed and analyzed by FACS using a FACSCalibur cytometer (Becton-Dickinson, San Jose, Calif.) with CellQuest acquisition software.
The induction of PS exposure on endothelial cells by subclinical concentrations of docetaxel was examined in vitro by FACS analysis. Human umbilical vein endothelial cells (HUVEC) and human microvessel endothelial cells (HMVEC) were treated with 10 nM of docetaxel for 24 hrs and examined by FACS. […] Docetaxel incubations for 48 and 72 hrs were also conducted.

[6] = system: 3LL, Colo26 and MDA-MB-435 cells; assay: Induction of PS exposure on tumor cell lines, FACS of 3G4 binding; type: cell-based; conditions: 10 nM, 24 hrs, Colo26, MDA-MB-435
Description: as §5, with “25A, FIG. 25B” for “24A”, “25C.” for “24B.”, “tumor cell lines” for “endothelial cells”, “Mouse lewis lung carcinoma 3LL, mouse colon carcinoma Colo26” for “Human umbilical vein endothelial cells (HUVEC)”, “breast cancer MDA-MB-435” for “microvessel endothelial”, “cells” for “cells (HMVEC)”
The in vitro induction of PS exposure by subclinical concentrations of docetaxel was also examined by FACS analysis using a panel of tumor cell lines. Mouse lewis lung carcinoma 3LL, mouse colon carcinoma Colo26 and human breast cancer MDA-MB-435 cells were treated with 10 nM of docetaxel for 24 hrs and examined by FACS. […] Docetaxel incubations for 48 and 72 hrs were also conducted.

Molecule: FGF-2: human fibroblast growth factor-2
- ^125I-Annexin V (% of Max binding) (bEnd.3 cells; 20 ng/ml): 0%
- ^125I-Annexin V (% of Max binding) (ABAE cells; 20 ng/ml): 0%

Molecule: OO [Hydrogen peroxide, hydrogen peroxide]
- cell viability (bEnd.3 endothelial cells): 95%

Molecule: Thrombin
- ^125I-Annexin V (% of Max binding) (bEnd.3 cells; 50 nM): 17.4%
- ^125I-Annexin V (% of Max binding) (ABAE cells; 50 nM): 8.8%

Molecule: VEGF
- ^125I-Annexin V (% of Max binding) (bEnd.3 cells; 20 ng/ml): 0%
- ^125I-Annexin V (% of Max binding) (ABAE cells; 20 ng/ml): 0%

Molecule: IL-10: interleukin-10
- ^125I-Annexin V (% of Max binding) (bEnd.3 cells; 20 ng/ml): 0%
- ^125I-Annexin V (% of Max binding) (ABAE cells; 20 ng/ml): 0%

Molecule: IL-8: interleukin-8
- ^125I-Annexin V (% of Max binding) (bEnd.3 cells; 20 ng/ml): 0%
- ^125I-Annexin V (% of Max binding) (ABAE cells; 20 ng/ml): 0%

Molecule: Scatter factor: recombinant hepatocyte growth factor
- ^125I-Annexin V (% of Max binding) (bEnd.3 cells; 40 ng/ml): 0%
- ^125I-Annexin V (% of Max binding) (ABAE cells; 40 ng/ml): 0%

Molecule: ch3G4: human-mouse chimeric 3G4: murine variable regions on human γ1 and κ constant regions, expressed in CHO cells
- localization to tumor vascular endothelium [1]: binds to the tumor vascular endothelium
- tumor growth as opposed to control [2]: effectively retarded tumor growth
- survival (mCMV RVG102): 80%
- binding to virus-infected vs uninfected cells (FACS) [3]: significant shift
- binding to phospholipid-coated ELISA plates [4]: bound at least as did well as the murine 3G4

Molecule: NC(=O)c1nnn(Cc2cc(Cl)c(C(=O)c3ccc(Cl)cc3)c(Cl)c2)c1N [CAI, carboxyamidotriazole]
- cancer patients with disease stabilization [5]: 49%

Molecule: CC(=O)O[C@@]12CO[C@@H]1C[C@H](O)[C@@]1(C)C(=O)[C@H](O)C3=C(C)[C@@H](OC(=O)[C@H](O)[C@@H](NC(=O)OC(C)(C)C)c4ccccc4)C[C@@](O)([C@@H](OC(=O)c4ccccc4)[C@H]21)C3(C)C [docetaxel]
- 3G4 binding as compared to untreated cells (HUVEC and HMVEC): significant increase in 3G4 binding
- 3G4 binding as compared with untreated cells [6]: significant increase in 3G4 binding

Molecule: TNFα
- ^125I-Annexin V (% of Max binding) (bEnd.3 cells; 20 ng/ml): 13.7%
- ^125I-Annexin V (% of Max binding) (ABAE cells; 20 ng/ml): 7.4%

Molecule: IL-6: interleukin-6
- ^125I-Annexin V (% of Max binding) (bEnd.3 cells; 20 ng/ml): 0%
- ^125I-Annexin V (% of Max binding) (ABAE cells; 20 ng/ml): 0%

Molecule: TGF β1: growth factor
- ^125I-Annexin V (% of Max binding) (bEnd.3 cells; 20 ng/ml): 0%
- ^125I-Annexin V (% of Max binding) (ABAE cells; 20 ng/ml): 0%

Molecule: Interferon
- ^125I-Annexin V (% of Max binding) (bEnd.3 cells; 40 ng/ml): 2.8%
- ^125I-Annexin V (% of Max binding) (ABAE cells; 40 ng/ml): 8.6%

B1: IL-1β: recombinant murine interleukin-1 beta (protein, UniProt P10749 118-269, looked up)
Interleukin-1 beta: VPIRQLHYRLRDEQQKSLVLSDPYELKALHLNGQNINQQVIFSMSFVQGEPSNDKIPVALGLKGKNLYLSCVMKDGTPTLQLESVDPKQYPKKKMEKRFVFNKIEVKSKVEFESAEFPNWYISTSQAEHKPVFLGNNSGQDIIDFTMESVSS
- ^125I-Annexin V (% of Max binding) (bEnd.3 cells; 10 ng/ml): 5.5%
- ^125I-Annexin V (% of Max binding) (ABAE cells; 10 ng/ml): 5.8%

B2: IL-1α: recombinant murine interleukin-1 alpha (protein, UniProt P01582 115-270, looked up)
Interleukin-1 alpha: SAPYTYQSDLRYKLMKLVRQKFVMNDSLNQTIYQDVDKHYLSTTWLNDLQQEVKFDMYAYSSGGDDSKYPVTLKISDSQLFVSAQGEDQPVLLKELPETPKLITGSETDLIFFWKSINSKNYFTSAAYPELFIATKEQSRVHLARGLPSMTDFQIS
- ^125I-Annexin V (% of Max binding) (bEnd.3 cells; 10 ng/ml): 7.5%
- ^125I-Annexin V (% of Max binding) (ABAE cells; 10 ng/ml): 6.4%
